Test results as given in patent US6214563A, “Photon reducing agents for reducing undesired light emission in assays” (Aurora Biosciences Corporation, priority 1998, dated 2001).

Columns and labels:
[1] = Effect of 50% methanol on coumarin fluorescence and phenol red absorbance (Example 2); assay type: physicochemical
Experimental: To further investigate the ability of a photon reducing agent to reduce fluorescence of a solution, fluorescence of a dye in the presence of a photon reducing agent was monitored in the presence and absence of methanol.
The fluorescence from a fluorophore in the presence of a photon reducing agent (phenol red) was determined in both aqueous buffer and aqueous buffer containing 50% (vol/vol) methanol. A 10 μM solution of 6-chloro-7-hydroxy coumarin-3-carboxylate was prepared in 39 mM phosphate buffer pH 7.5 and in a 1:1 mixture of same phosphate buffer and methanol. 1% (vol/vol) of a 100 mM aqueous Phenol Red stock solution was added to the solutions.

arthritis = conditions: in vivo; cited from earlier work
T-cells = conditions: cited from earlier work
[2] = Front face solution fluorescence of coumarin with and without phenol red (Example 1); conditions: 1 mM phenol red; 0.5 μM coumarin; 50% methanol/phosphate buffer pH 7.5
Experimental: To investigate the ability of a photon reducing agent to reduce fluorescence of a solution, emission of a fluorophore from a sample was monitored in the presence and absence of a photon reducing agent.
Fluorescence from a solution of a blue fluorescent dye, 6-chloro-7-hydroxy coumarin 3-carboxylate, was determined in the presence and absence of a 1 mM phenol red as the photon reducing agent. A solution of 0.5 μM 6-chloro-7-hydroxy coumarin-3-carboxylate in solvent containing 50% (vol/vol) aqueous 39 mM phosphate buffer pH 7.5 and 50% (vol/vol) methanol was prepared. After taking a front face fluorescence spectrum of this solution on a Spex Fluorolog 2, 1% (vol/vol) of a 100 mM aqueous Phenol Red stock solution was added and another spectrum taken. Front face fluorescence refers to exciting the sample at a right angle to the sample surface and collecting emitted light (for example, from the excited region or emission region) at 12.5 degrees from such angle of excitation.

[3] = Absorption maxima of dyes (Table 1); assay type: physicochemical; conditions: value printed in parentheses
[4] = Coumarin fluorescence as a function of path length (Example 6); conditions: 10 μM coumarin + 1 mM phenol red; FIG. 10A
Experimental: To further investigate the ability of photon reducing agents to reduce fluorescence emitted from a solution, fluorescence emitted from a solution containing a fluorophore in the presence of a photon reducing agent was monitored as a function sample thickness.
A photon reducing agent, phenol red, was tested with a fluorophore, coumarin, as a function of sample thickness (path length). The experiment was conducted using a microscope equipped with epifluorescence. The liquid samples were drawn into low fluorescence capillary tubes of fixed path length (Vitro Dynamics, Rockaway N.J.) as indicated in the graphs. The following samples were evaluated:
The samples were excited using a 405/20 filter via a 425 dichroic reflector through a 20× objective (Zeiss 20× Fluar). Emitted light was filtered through a 460/50 filter and detected by an intensified CCD camera (Stanford Photonics, Menlo Park, Calif.). The detector output was converted to a 512×512 pixel eight-bit digital image. The data reflect the average intensity within a 20×20 pixel area within the capillary. The background intensity of the field was subtracted from all values.

[5] = Residual coumarin fluorescence with non-dye quenchers and particulates (Example 3); conditions: ex. 395 nm, em. 460 nm; pH 7.5

## O=C(O)c1cc2cc(Cl)c(O)cc2oc1=O [6-chloro-7-hydroxy coumarin-3-carboxylate]
[1]; absence of a photon reducing agent
  increase of fluorescence in 50% methanol buffer: about 30%

## C[C@]12CCC(=O)C=C1CC[C@@H]1[C@@H]2[C@@H](O)C[C@@]2(C)[C@H]1CC[C@]2(O)C(=O)CO [Hydrocortisone]
arthritis
  efficacy in rabbit knee arthritis model: efficacious in this model

## cyclosporin A
T-cells
  prevention of T-cell proliferation in vitro: prevent proliferation of T-cells in vitro

## O=S1(=O)OC(c2ccc(O)cc2)(c2ccc(O)cc2)c2ccccc21 [phenol red]
[2]
  reduction of front face fluorescence: 70 fold
[1]; 50% methanol buffer
  decrease of absorbance at the emission wavelength of the coumarin in 50% methanol buffer: about 20%
[3]
  absorption maximum, value in parentheses: 423 nm
[4]
  attenuation of coumarin fluorescence: significantly attenuated

## NCCN(CCN)CCN [tris (2-aminoethyl) amine]
[5]
  concentration required (collisional quenchers): higher than 100 mM
